According to US20150203526A1, “NOVEL 19-NOR-STEROIDS AND THEIR USE FOR TREATING PROGESTERONE- DEPENDENT CONDITIONS” (REPROS THERAPEUTICS INC., priority 2010, published 2015):
Values after ≈ are worked out from the molar mass of the structure shown. Where two headings read alike, the source gives them in different places.

Legend:
[1] = Pharmacokinetic studies on clinical trial subjects after oral CDB-4124; type: in vivo, human; details: oral CDB-4124, 12.5 mg vs 50 mg
Method: The maximum concentrations of CDB-4124 and its mono-demethylated metabolite (CDB-4453) for the 12.5 mg dose were 25% of the 50 mg dose. All liver toxicities resolved in those women that returned for safety follow-ups, including those subjects that developed liver-associated serious adverse effects (SAEs).
Pharmacokinetic studies performed on participating subjects detected a high Cmax and a Tmax at 1-2 hours following administration. […] Metabolism of CDB-4124 by the liver provides the opportunity for liver damage and greatly reduces the concentration of the antiprogestin before it reaches the systemic circulation. Thus, alternative routes of administration of antiprogestins that avoid first pass metabolism such as, without limitation, intravenous, intramuscular, and sublingual, should allow antiprogestins to be absorbed directly into the systemic circulation and thereby provide a method for treating progestone-dependent conditions while avoiding liver toxicity. Administration routes which avoid first pass metabolism may also require less drug per dose to achieve the same therapeutic benefit relative to oral administration.

[2] = Oral vs vaginal pharmacokinetics in beagles (25 mg); type: in vivo
Method: FIG. 1 illustrates a comparison of the Cmax (peak serum concentration) and area under the curve (AUC) following oral and vaginal administration of CDB-4124 or CDB-4453 at a 25 mg dose in beagles.
Beagles were administered 25 mg of CDB-4124 or CDB-4453 (the monodemethylated metabolite of CDB-4124) formulated as either a micronized powder or a vaginal suppository. […] Moreover, systemic exposure of the drug is much lower when administered locally (compare AUC for CDB-4124 and CDB-4453 when administered vaginally vs. orally).

[3] = Thermodynamic solubility (solid shaken in solvent at 37° C., filtrate by LC/UV); type: physicochemical; details: thermodynamic from solid
Method: Briefly, 300 ul of solvent (ethanol, 0.1 M HCl or distilled H2O) were added to 14-16 mg of the solid compound (5 parallel measurements per sample, per solvent, mean concentrations 93-107 mM). The mixtures were shaken at 37° C. for 24 and 72 hours. Concentrations of the filtrates were determined by liquid chromatography with UV detector (LC/UV) with 3-point calibration.
Crystal form was checked by X-ray powder diffraction (XRPD) after recovering the slurry at 24 and 72 hours. […] The exact cause of this observed phenomenon is not known.

[4] = organic solvent or mixture, ethanol, read-out: Thermodynamic solubility, Ethanol, Mean
[5] = simulated gastric fluid, 0.1M HCl, read-out: Thermodynamic solubility, 0.1M HCl, Mean

Maximum concentration for the 12.5 mg dose relative to the 50 mg dose [1] [%]	Metabolism after peak plasma concentration ([2]; oral micronized powder)	Metabolism ([2]; vaginal suppository)	Peak plasma concentrations (Cmax) ([2]; vaginal suppository)	Systemic exposure (AUC), local vs oral ([2]; vaginal vs oral)	SMILES	solubility thermodynamic at 24 h [3, 4] [µM]	solubility thermodynamic at 72 h [3, 4] [µM]	solubility thermodynamic at 24 h [3, 5] [µM]	solubility thermodynamic at 72 h [3, 5] [µM]	solubility thermodynamic at 24 h ([3]; distilled water, read-out: Thermodynamic solubility, Distilled water, Mean) [µM]	solubility thermodynamic at 72 h ([3]; distilled water, read-out: Thermodynamic solubility, distilled water, Mean) [µM]
25	rapidly metabolized	metabolized slowly	relatively low	much lower	CNc1ccc([C@H]2C[C@@]3(C)[C@@H](CC[C@]3(OC(C)=O)C(=O)COC)[C@@H]3CCC4=CC(=O)CCC4=C32)cc1 [CDB-4453]	–	–	–	–	–	–
–	–	–	–	–	CC(=O)O[C@]1(C(C)=O)CC[C@H]2[C@@H]3CCC4=CC(=O)CCC4=C3[C@@H](c3ccc(C(C)=O)cc3)C[C@@]21C [REP-4510, 17α-acetoxy-11β-(4-acetylphenyl)-19-norpregna-4,9-dien-3,20-dione]	3300 (≈ 1570 µg/mL)	2900 (≈ 1380 µg/mL)	0.5 (≈ 0.237 µg/mL)	0.45 (≈ 0.214 µg/mL)	0.52 (≈ 0.247 µg/mL)	0.44 (≈ 0.209 µg/mL)
